# Key:
# C2C12 cells [1] = experiment: Glucose absorption (2-deoxy-D-glucose uptake) by differentiated C2C12 myotubes, Amplex Red Glucose/Glucose Oxidase Assay Kit; type: cell-based, mouse; details: for glucose absorption in contrast to C2C12 cells without stimulation (in words): 0.1 μM, 1 μM, 10 μM and 100 μM metal solution
# Protocol: The cells are cultured and differentiate. […] Then, a half of the culture media are removed and replaced with fresh differentiation media (90% DMEM (Dulbecco's Modified Eagle's Medium) and 10% FBS (fetal bovine serum)). […] In normal physiological conditions, the myotube differentiates from the myoblast and aggregates to form muscle. Therefore, the myotube has a cell type most similar to muscle, so that the cell type of used cells is a myotube in the whole test experiment. The glucose extracted from the cells is determined. […] When starting the experiment, add the stimulating samples with suitable concentration to the culture media and incubate at 37° C. for 30 minutes (mins). […] Finally, incubate the cells on ice for 10 mins, to stop the reaction. Then, remove the culture media, and wash the cells three times with an ice-cold PBS solution. After washing, scrape the cells from the plate with ice-cold 65% EtOH and sonicate the cells. After spun in a centrifuge at 13000 rpm and 4° C. for 15 mins, transfer the supernatant to fresh the eppendorf tube and then spin the remainder in the centrifuge again to collect the supernatant again. The collected supernatants are mixed and dry the supernatant by vacuum centrifugation. After drying, the sample is acquired and assayed for […] levels using the Amplex Red Glucose/Glucose Oxidase Assay Kit.
# C2C12 cells [2] = experiment: Observation of change in cell type, floating and damage of C2C12 cells after stimulation
# Source text: In FIG. 4, the columns with the same patterns represent the C2C12 cells stimulated by the same metal ion (or oxidized metal ion) solutions and the sign under the transverse axle indicates the concentration of the metal ion (or oxidized metal ion) solution, corresponding to each column.
# In FIG. 8, the columns with the same patterns represent treatment with the same complex and the sign under the transverse axle indicates the concentration of the complex corresponding to each column.
# [3] = 40 μg/ml complex, co-treated with 10 μM insulin, vs no stimulating sample
# [4] = 40 mg/ml complex solution including 1 mM metal ion and the insulin
# [5] = 0.1 μM metal solution, co-treatment with 1 μM insulin, vs no stimulating sample
# [6] = 10 μM metal solution, 30 min, vs C2C12 cells without stimulation
# [7] = 10 μM metal solution, co-treatment with 6 pM insulin, vs no stimulating sample
# [8] = 100 μM metal solution, 30 min, vs C2C12 cells without stimulation
# [9] = 100 μM metal solution, co-treatment with 1 μM insulin, vs no stimulating sample
# [10] = 1 mM metal solution and the insulin
# [11] = 1 mM metal solution, no insulin
# [12] = 40 mg/ml solution including 1 mM metal ion, no insulin
# [13] = 1 μM metal solution, co-treatment with 10 μM insulin, vs no stimulating sample
Compound,fold increase in glucose absorption (C2C12 cells [1]; [3]),fold increase in glucose absorption (C2C12 cells [1]; [4]),fold increase in glucose absorption (C2C12 cells [1]; [5]),glucose absorption in contrast to C2C12 cells without stimulation (in words) (C2C12 cells [1]),fold increase in glucose absorption (C2C12 cells [1]; [6]),fold increase in glucose absorption (C2C12 cells [1]; [7]),fold increase in glucose absorption (C2C12 cells [1]; [8]),fold increase in glucose absorption (C2C12 cells [1]; [9]),fold increase in glucose absorption (C2C12 cells [1]; [10]),fold increase in glucose absorption (C2C12 cells [1]; [11]),fold increase in glucose absorption (C2C12 cells [1]; [12]),fold increase in glucose absorption (C2C12 cells [1]; [13]),also measured
Cr-TF: complex of the transferrin and Cr^3+,4.94 fold,5.0 fold,,,,,,,,,,,"fold increase in glucose absorption (C2C12 cells [1]; 80 μg/ml complex, vs no stimulating sample): 4.03 fold"
"[Cr+3] [Cr^3+, chromium (III) ion]",,,4.84 fold,enhanced,2.21 fold,2.36 fold,2.41 fold,3.74 fold,1.3 fold,1.6 fold,3.9 fold,,"fold increase in glucose absorption (C2C12 cells [1]; 1 μM metal solution, co-treatment with 1 μM insulin, vs no stimulating sample): 3.71 fold"
VO-TF: complex of the transferrin and VO^2+,6.07 fold,6.1 fold,,,,,,,,,,,"fold increase in glucose absorption (C2C12 cells [1]; 40 μg/ml complex, vs no stimulating sample): 4.43 fold"
"Co-TF: complex of the transferrin and Co^3+, from apo-transferrin and Co^3+ solution (3:1 mole ratio)",7.01 fold,7.1 fold,,,,,,,,,,,"fold increase in glucose absorption (C2C12 cells [1]; 100 μg/ml complex, vs no stimulating sample): 4.97 fold"
"[O]=[V+2] [VO^2+, vanadyl]",,,,enhanced,2.61 fold,,2.38 fold,3.4 fold,2.7 fold,1.9 fold,4.4 fold,2.7 fold,"fold increase in glucose absorption (C2C12 cells [1]; 0.1 μM metal solution, co-treatment with 0.1 μM insulin, vs no stimulating sample): 2.62 fold; fold increase in glucose absorption (C2C12 cells [1]; 10 μM metal solution, co-treatment with 10 μM insulin, vs no stimulating sample): 6.21 fold"
"[Co+3] [Co^3+, cobalt (III) ion]",,,7.73 fold,enhanced,,3.95 fold,3.14 fold,8.5 fold,4.4 fold,2.5 fold,3.0 fold,4.37 fold,"change of cell type / damage of C2C12 cells (C2C12 cells [2]; 100 μM metal solution with insulin co-treatment): the type of C2C12 cells changes and the C2C12 cells are damaged; change of cell type / damage of C2C12 cells (C2C12 cells [2]; stimulation for 30 mins, 100 μM (high concentration) for metal solution): damaged at a certain level"
